In patent US20250034151A1, “WEE1 INHIBITOR, PREPARATION THEREFOR, AND USE THEREOF” (JIANGSU TASLY DIYI PHARMACEUTICAL CO., LTD., priority 2022, published 2025):

Target: T1, CYP2B6 (Homo sapiens, UniProt P20813)
T1 sequence (P20813 1-491): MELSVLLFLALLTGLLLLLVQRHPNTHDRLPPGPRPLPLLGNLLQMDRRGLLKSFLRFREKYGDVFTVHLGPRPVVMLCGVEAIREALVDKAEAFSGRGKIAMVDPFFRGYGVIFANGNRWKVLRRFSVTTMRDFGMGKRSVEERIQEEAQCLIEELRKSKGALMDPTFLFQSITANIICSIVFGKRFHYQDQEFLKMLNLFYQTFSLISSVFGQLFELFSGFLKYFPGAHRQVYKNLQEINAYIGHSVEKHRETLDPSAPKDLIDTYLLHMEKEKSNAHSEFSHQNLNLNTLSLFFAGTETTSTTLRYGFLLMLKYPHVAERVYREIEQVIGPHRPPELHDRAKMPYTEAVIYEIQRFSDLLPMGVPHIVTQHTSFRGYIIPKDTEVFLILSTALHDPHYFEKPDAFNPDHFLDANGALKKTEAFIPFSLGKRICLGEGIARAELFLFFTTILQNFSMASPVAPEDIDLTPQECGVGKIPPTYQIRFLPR
Assay: CYP450 isoform enzymatic inhibition, 2B6
Type: in vitro ADME
Conditions: pH 7.4, read-out: CYP inhibiton/% 2B6
Description: Enzymatic experiments were performed to quantify the inhibition of CYP450 enzyme activity of each isoform of CYP450 by small molecule inhibitors through fluorescence generated by the oxidation of the The substrate by cytochrome P450. […] The Solution B composition used for the experiment was: 40 U/mL G6PDH (Sigma-aldrich, Cat #G6378). The The substrate mix was 0.05×Solution A, 0.01×Solution B, 50 mM Potassium Phosphate, 0.01 mM BOMCC/0.01 mM EOMCC/0.001 mM DBOMF.

- inhibition at 30 min, 10 µM: 1.38%
Structure (SMILES): C=CCn1c(=O)c2cnc(Nc3ccc(N4C[C@@H]5C[C@H]4CN5C)cc3)nc2n1-c1cccc(C(C)(C)O)n1 [Compound 3]
